This is an account of results in US4490376A, “Substituted ethenyl derivatives of 1H-pyrazolo-[1,5-a]pyrimidine having gastroenteric activity, compositions thereof, and methods of using the same” (Farmitalia Carlo Erba S.p.A, priority 1982, dated 1984).

The test system of data set [1] is gastric secretion. Put plainly: inhibition of gastric secretion, pylorus ligature technique (Shay et al.), gastric antisecretory activity. The format is in vivo, Sprague-Dawley male rats. The following applies: rat; intraduodenal at the time of pylorus ligature; 4 hours; approximate ED50; read-out: Gastric anti-secretory activity ED50 i.d. The text has this: (§1) The compounds of the present invention are active on the gastroenteric system, in particular they are endowed with anti-ulcerogenic and gastric anti-secretory activity and are therefore useful in therapy, for example in the prevention and treatment of peptic, e.g. duodenal, gastric and exophageal, ulcers and to inhibit gastric acid secretion. The compounds of the invention are also useful for reducing the undesirable gastrointestinal sideeffects resulting from systemic administration of antiinflammatory prostaglandin synthetase inhibitors and may be, therefore, used for this purpose in association with them. […] Six Sprague-Dawley male rats (100-120 g) fasted 24 hours were used for the experiment: a square flexible small-mesh were netting was used for the immobilization and 4 hours after the immobilization the rats were sacrificed, their stomachs were removed and the lesions counted under a dissecting microscope. […] Gastric antisecretory activity was evaluated in rats by the pylorus ligature technique. […] Four hours after the ligature the rats were sacrificed, the stomach secretion was collected and centrifuged at 3500 r.p.m. for 10 minutes, and the volume, less sediment, was determined.
The amount of the free hydrochloric acid in the gastric juice was determined by titration against 0.01N sodium hydroxide to pH 7.0 on the pH-meter.

A short description of data set [2]: approximate acute toxicity (LD50), single administration. Conditions: in vivo, po; mouse; per os; single administration of increasing doses; measured on the seventh day. How it is done:
In view of their high therapeutic index, the compounds of the invention can be used safely in medicine. For example, the approximate acute toxicity (LD50) of the compound 1-phenyl-5-trans-[2-(3-pyridyl)-ethenyl]-1H,7H-pyrazolo [1,5-a]pyrimidine-7-one (FCE 21542) in the mouse, determined by single administration of increasing doses and measured on the seventh day after the day of treatment, is higher than 400 mg/kg per os. Analogous toxicity data have been found for other compounds of the invention. The compounds of the invention can be administered in a variety of dosage forms, e.g. orally, in the form of tablets, capsules, sugar or film coated tablets, liquid solutions or suspensions, rectally, in the form of suppositories, parenterally, e.g. intramuscularly, or by intravenous injection or infusion. The dosage depends on the age, weight, conditions of the patient and administration route; for example the dosage adopted for oral administration to adult humans may range from about 50 to about 200 mg pro dose, from 1 to 5 times daily. The invention includes also pharmaceutical compositions comprising a compound of the invention in association with a pharmaceutically acceptable excipient (which can be a carrier or diluent).

The test system of data set [3] is restraint ulcers. Description: inhibition of restraint ulcers in rats (Bonfils et al.), anti-ulcerogenic activity. The format is in vivo, Sprague-Dawley male rats. The following applies: po; rat; p.o. one hour before immobilization; lesions counted 4 hours after immobilization; approximate ED50; read-out: Antiulcerogenic activity ED50 p.o.
Text: as §1

For orientation: ED50 means the midpoint of the dose-response relation. The LD50 is the dose expected to kill half of the subjects tested. In the case of `O=c1cc(/C=C/c2cccnc2)nc2ccn(-c3ccccc3)n12` [FCE 21542, 1-phenyl-5-trans-[2-(3-pyridyl)-ethenyl]-1H,7H-pyrazolo[1,5-a]pyrimidine-7-one], the values for the ED50 in data set [1] and in data set [3] were approximately 3.2 mg/kg and approximately 7 mg/kg, respectively. The compound further gave an LD50 at 168 h in data set [2] of more than 400 mg/kg.
